From publication PMC10020666, “Oxidation modulates LINGO2-induced inactivation of large conductance, Ca^2+-activated potassium channels” (The Journal of Biological Chemistry, 2023)
Entries after “also recorded” stand apart in the source; their conditions may differ.

Key:
[1] = system: BK:LINGO2 channels; assay: Effect of Ch-T on BK:LINGO2 currents at different voltages (GV curves); assay type: cell-based, rabbit BKα, human LINGO2
Experimental: (§1) All excised patch experiments were performed at 37 °C in 140 mM symmetrical K^+ solutions which contained 140 mM KCl, 10 mM glucose, 10 mM Hepes, and either 1 mM ethylene glycol-bis(β-amino ether)-N,N,N′,N′-tetraacetic acid (EGTA (for free [Ca^2+] 100 nM to 300 nM) or 1 mM hydroxyethylethylenediaminetriacetic acid (HEDTA for free [Ca^2+] 1 μM to 10 μM) and the pH of all solutions was adjusted to 7.2 with KOH. These solutions were made with double-distilled, deionized, filtered water from a MilliQ water purification system. The pipette solution contained 100 nM free Ca^2+. We used “Chelator” (https://www.ru.nl/animal/research/chelator/) to calculate the total amount of Ca^2+ required, as per Schoenmakers et al., ([40]) and free Ca^2+ concentrations were checked with a Ca^2+ sensitive electrode.
(§2) During experiments, the dish containing HEK cells was superfused with Hanks solution, which contained (in mM) 129.8 Na^+, 5.8 K^+, 135 Cl^-, 4.17 HCO3^-, 0.34 HPO4^2-, 0.44 H2PO4^-, 1.8 Ca^2+, 0.9 Mg^2+, 0.4 SO4^2-, 10 glucose, 2.9 sucrose, and 10 Hepes, and its pH was adjusted to 7.4 with NaOH. In addition, the patch under study was continuously superfused by means of a close delivery system consisting of a pipette (tip diameter 200 μm) placed approximately 300 μm away from the cell. This could be switched, with a dead-space time of around 5 s, to a solution containing a drug.
(§3) Electrodes were pulled from Corning borosilicate glass (1.5 mm O.D. × 0.86 mm I.D.) using a Sutter P-97 pipette puller and fire polished using a Narashige MF 83 microforge. Pipettes had resistances of 2 to 5 MΩ when filled with recording solutions and series resistance was compensated by up to 80%. Standard single-channel patch clamp recording methods were used. Voltage clamp commands were delivered via an Axopatch 200B patch clamp amplifier (Axon Instruments) connected to a Digidata 1322A AD/DA converter (Axon Instruments) interfaced to computers running pClamp software (Axon Instruments). Data was acquired at 100 KHz and filtered at 2 KHz or 5 KHz. Patches were held at either −60 mV or −100 mV and depolarized in 20 mV increments to 200 mV. Residual capacitance and leakage currents were subtracted using either a P/4 protocol or offline by manual leak subtraction.
The human LINGO2 transcript used [NM_001354575.2] was untagged in a pcDNA 3.1 vector (VectorBuilder). The α subunit of the rabbit BK channel was isolated from rabbit urethral smooth muscle and cloned using the pcDNA TOPO DNA cloning kit (Life Technologies). The identifiesd transcript corresponded to the ZERO variant of mouse BKα and to variant 2 (NM_002247.3) of human BKα. We used 100 ng ml^−1 cDNA for BKα only transfections, whereas a 100:500 ng ml^−1 cDNA ratio was used for BKα:LINGO2 and BKα:LINGO1 cotransfections for inside-out patch recordings. GFP (150 ng ml^−1) was included in all transfections except those used for Figure 2, C and D. cDNA was transiently transfected into HEK cells using lipofectamine. Site-directed mutagenesis used the Phusion kit (Thermo Fisher Scientific) method ([41]) and all mutations were confirmed by sequencing. […]
G was derived from peak currents according to Ohm’s law[1] […] Summary data was expressed as the […]. […] For BK constructs, data from each patch was normalized to the peak conductance measured in either 1 μM or 10 μM Ca^2+ to obtain Gmax, and curves were constrained to the Gmax value obtained in this. […]

[2] = system: BKα currents; assay: Effect of Ch-T on BKα currents in absence of LINGO2 (inside-out patch); assay type: cell-based, rabbit
Experimental: as §1
During experiments, the dish containing HEK cells was superfused with Hanks solution, which contained (in mM) 129.8 Na^+, 5.8 K^+, 135 Cl^-, 4.17 HCO3^-, 0.34 HPO4^2-, 0.44 H2PO4^-, 1.8 Ca^2+, 0.9 Mg^2+, 0.4 SO4^2-, 10 glucose, 2.9 sucrose, and 10 Hepes, and its pH was adjusted to 7.4 with NaOH. […]
(§4) All data is presented as mean ± SD and was analyzed with Prism software (GraphPad). […] Statistical differences were assessed using either paired or unpaired nonparametric tests (Wilcoxin signed-rank test, Mann–Whitney test), or the extra sum of squares F-test, as appropriate. […]

[3] = system: BKα:LINGO2; assay: Effect of Ch-T on steady-state voltage-dependent inactivation (double pulse protocol); assay type: cell-based, rabbit BKα, human LINGO2; conditions: 200 μM Chloramine-T, 2 min, 100 nM Ca2+, control inactivation V1/2 36±5 mV, n = 6
Experimental: All excised patch experiments were performed at 37 °C in 140 mM symmetrical K^+ solutions which contained 140 mM KCl, 10 mM glucose, 10 mM Hepes, and either 1 mM ethylene glycol-bis(β-amino ether)-N,N,N′,N′-tetraacetic acid (EGTA (for free [Ca^2+] 100 nM to 300 nM) or 1 mM hydroxyethylethylenediaminetriacetic acid (HEDTA for free [Ca^2+] 1 μM to 10 μM) and the pH of all solutions was adjusted to 7.2 with KOH. These solutions were made with double-distilled, deionized, filtered water from a MilliQ water purification system. The pipette solution contained 100 nM free Ca^2+. We used “Chelator” (https://www.ru.nl/animal/research/chelator/) to calculate the total amount of Ca^2+ required, as per Schoenmakers et al., ([40]) and free Ca^2+ concentrations were checked with a Ca^2+ sensitive electrode. […]
Inactivation curves were fitted with a similar Boltzmann function:[3] I/Imax=1/{1+exp[±(V1/2−Vc)/K]} where, I was the current recorded at the test step, Imax was the maximal current recorded, Vc was the conditioning potential (see RESULTS), and K was the slope factor.
as §4

[4] = system: BK:LINGO2 channels; assay: Effect of oxidizing/reducing agents on BK:LINGO2 currents (inside-out patch, step to +160 mV); assay type: cell-based, rabbit BKα, human LINGO2; conditions: 200 μM Ch-T, 100 nM Ca2+
Experimental: as §1, §2, §3
The human LINGO2 transcript used [NM_001354575.2] was untagged in a pcDNA 3.1 vector (VectorBuilder). The α subunit of the rabbit BK channel was isolated from rabbit urethral smooth muscle and cloned using the pcDNA TOPO DNA cloning kit (Life Technologies). The identifiesd transcript corresponded to the ZERO variant of mouse BKα and to variant 2 (NM_002247.3) of human BKα. We used 100 ng ml^−1 cDNA for BKα only transfections, whereas a 100:500 ng ml^−1 cDNA ratio was used for BKα:LINGO2 and BKα:LINGO1 cotransfections for inside-out patch recordings. GFP (150 ng ml^−1) was included in all transfections except those used for Figure 2, C and D. cDNA was transiently transfected into HEK cells using lipofectamine. Site-directed mutagenesis used the Phusion kit (Thermo Fisher Scientific) method ([41]) and all mutations were confirmed by sequencing.
HEK293 cells were cultured in Dulbecco's modified Eagle's medium + MEM media containing 10% fetal bovine serum and 1% Penicillin-Streptomycin antibiotics at 37 °C, and 95% humidifying incubator containing 5% CO2. Subculturing was done by 0.05% Trypsin-EDTA solution.
All data is presented as mean ± SD and was analyzed with Prism software (GraphPad). Individual data points are also shown in bar charts. Statistical differences were assessed using either paired or unpaired nonparametric tests (Wilcoxin signed-rank test, Mann–Whitney test), or the extra sum of squares F-test, as appropriate. Comparisons of three or more nonparametric data sets used Friedman’s test followed by Dunn’s test for multiple comparisons, whereas ANOVA was used for three or more parametric data sets. p < 0.05 was taken as significant.

[5] = system: BK:LINGO2 M603L mutant; assay: Effect of Ch-T on BK:LINGO2 M603L currents (inside-out patch); assay type: cell-based, rabbit BKα, human LINGO2
Experimental: as §1, §2
Electrodes were pulled from Corning borosilicate glass (1.5 mm O.D. × 0.86 mm I.D.) using a Sutter P-97 pipette puller and fire polished using a Narashige MF 83 microforge. Pipettes had resistances of 2 to 5 MΩ when filled with recording solutions and series resistance was compensated by up to 80%. Standard single-channel patch clamp recording methods were used. […]
as §4

[6] = system: BK:LINGO2 M605L mutant; assay: Effect of Ch-T on BK:LINGO2 M605L currents (inside-out patch); assay type: cell-based, rabbit BKα, human LINGO2
Experimental: as §1, §2, §3
The human LINGO2 transcript used [NM_001354575.2] was untagged in a pcDNA 3.1 vector (VectorBuilder). The α subunit of the rabbit BK channel was isolated from rabbit urethral smooth muscle and cloned using the pcDNA TOPO DNA cloning kit (Life Technologies). […]
as §4

Cc1ccc(S(=O)(=O)NCl)cc1 [Ch-T, Chloramine T]
Inactivation after Ch-T, family of voltages ([1]; 100 nM Ca2+, -100 to +200 mV): inactivation was practically abolished; also recorded: increased current amplitude and practically abolished inactivation | Half maximal activation voltage V1/2 after Ch-T ([1]; 100 nM Ca2+, Ch-T 2 min, before Ch-T 128 ± 3 mV, n = 7, Boltzmann fit): 86 ± 11 mV | Inactivation and current amplitude after Ch-T, family of voltages ([1]; 10 μM Ca2+, 200 μM Ch-T, -100 to +200 mV): the current amplitude was increased at all voltages recorded, and inactivation was practically abolished | G/Gmax at -60 mV in Ch-T ([1]; 10 μM Ca2+, -60 mV, 200 μM Ch-T, before 0.06 ± 0.02, n = 6, p < 0.05): 0.48 ± 0.27 | Open probability of BK:LINGO2 channels / conductance ([1]; Ch-T in 10 μM Ca2+): large increases in G across the voltage range; also recorded: increased the G/Gmax at all voltages; also recorded: significantly increased the open probability of BK:LINGO2 channels | Increase of BKα current amplitude ([2]; 200 μM Ch-T, up to 210 s, +160 mV, 100 nM Ca2+, n = 4-5, p = 0.43 (not significant)): 21 ± 27% | Effect on BKα current amplitude ([2]; Ch-T, 4-min application, n = 4 to 5, p = 0.43): failed to significantly increase the BKα current amplitude | Steady-state voltage-dependent inactivation after Ch-T [3]: no time- or voltage-dependent inactivation was observed | Steady-state voltage-dependent inactivation after Ch-T ([3]; listed as Chloramine-T): compl etel y abol i shed | Effect on BK:LINGO2 inactivation [4]: caused rapid abolition of inactivation; also recorded: maintained for the duration of the recording, despite the removal of the oxidizing agent; also recorded: completely abolished inactivation and also increased peak current amplitude; also recorded: inactivation was clearly abolished | Effect on BK:LINGO2 inactivation ([4]; listed as chloramine-T): abolished inactivation | Sustained current amplitude, % of peak current, after 60 s Ch-T ([4]; 60 s, last 5 ms, control 11 ± 8%, n = 7, p < 0.05, mean ± SD): 59 ± 39% | Sustained current amplitude, % of peak current, after 120 s Ch-T ([4]; 120 s, last 5 ms, control 11 ± 8%, n = 7, p < 0.05, mean ± SD): 130 ± 19% | Increase of peak current amplitude compared to control ([4]; 120 s, p < 0.05, n = 7, mean ± SD): 35 ± 31% | Sustained current after 60 s Ch-T ([5]; 200 μM Ch-T, 60 s, 100 nM Ca2+, +160 mV, control 10 ± 9%, n = 9, p < 0.05): 17 ± 9% | Sustained current after 150 s Ch-T ([5]; 200 μM Ch-T, 150 s, 100 nM Ca2+, +160 mV, control 10 ± 9%, n = 9, p < 0.05): 20 ± 12% | Sustained current during Ch-T (summary in figure legend) ([5]; Ch-T, 7 to 9 patches): ~20% | Ch-T effectiveness reduction compared to WT BK:LINGO2 currents ([6]; M605L vs WT, p < 0.001, Mann-Whitney test): ~50 % less effective | Sustained current, % of peak current amplitude, after an additional 90 s Ch-T ([6]; M605L, 200 μM Ch-T, 60 s + additional 90 s, 100 nM Ca2+, +160 mV, control 6 ± 4%, p < 0.01): 47 ± 25% | Sustained current, % of peak current amplitude, after 60 s Ch-T ([6]; M605L, 200 μM Ch-T, 60 s, 100 nM Ca2+, +160 mV, control 6 ± 4%, n = 10, p < 0.01): 15 ± 14% | Sustained current, % of peak current amplitude, at end of 210 s application ([6]; M605L, 200 μM Ch-T, 210 s, 100 nM Ca2+, +160 mV): ~50%
